Measured values as given in PMC10257182, “Discovery of senolytics using machine learning” (Nature Communications, 2023).
“And” between values parts separate entries of the source, which are not always exact repeats. Identical values can stand only once.

Key:
Format in all cases: cell-based, human
[1] = tested on: caspase 3/7 activity in senescent IMR90 ER:RAS cells; experiment: Caspase 3/7 activity assay; design: Caspase 3/7 activity time course (SUP FIG 9F) / Caspase 3/7 activity time course (SUP FIG 9F exp not shown): unit not given here; settings: for Caspase 3/7 activity time course (SUP FIG 9F) / Caspase 3/7 activity time course (SUP FIG 9F exp not shown): ER:RAS cells; for Caspase 3/7 activity time course (SUP FIG 9F exp not shown): second experiment, data not shown
Protocol: IMR90 ER:STOP and IMR90 ER:RAS cells were cultured with 100 nM 4-OHT for 5 days. Cell were then plated in a multiwell plate at high density. Once cells were attached, Caspase 3/7 probe (C10423 Invitrogen) and senolytic drugs, oleandrin, ouabain and periplocin at 10 nM, were added to the media and cultured for 36 h. Time lapse imaging was recorded every hour on a Leica AF6500 microscope (10x). ImageJ 1.53k was used for positive cell counting.

[2] = tested on: Na+/K+ ATPase pump (intracellular K+) in senescent IMR90 ER:RAS cells; experiment: Intracellular K+ determination with Asante staining, OIS; settings: FIG 4E, ER:RAS cells
Protocol: (§1) Cells were cultured for control and senescent phenotype and then treated with the senolytics oleandrin, ouabain and periplocin at 10 nM for 72 h. Asante (Asante Potassium Green-2 AM, abcam ab142806) was added to the culture 30 min before fixation, following manufacturer instructions. DAPI staining was done before image acquisition on Nikon TI2 microscope (20x). Image analysis was performed using ImageJ 1.53k for setting intensity threshold and measuring mean intensity.

[3] = tested on: A549 cells treated with 100 μM etoposide; experiment: Cell survival assay using crystal violet staining, TIS, senescent cells; settings: Etoposide-treated (senescent) cells; Control DMSO = 100; single replicates (SUP FIG 9E)
Protocol: (§2) Equal numbers of control and senescent cells were plated at high density on multiwell plates just before senolytic treatment addition. After treatment, cells were fixed on 0.5% glutaraldehyde (Sigma) and then dried at RT overnight. Then, wells were stained with crystal violet solution for 3 h, washed and dried. Once they were completely dry, the plates were scanned for records. Quantification was performed extracting the staining with 1% acetic acid and measuring the final solution by absorbance at 595 nm. […]
(§3) cells per condition is indicated. (d) Cell survival assay measuring the senolytic effect in lung cancer senescent cells. The panels show a representative crystal violet staining of tissue culture dishes of confluent A549 cells treated with 100 μM etoposide and control A549 cells, all treated with 10 nM oleandrin, ouabain and periplocin, and DMSO as vehicle control for 72 hours as indicated. (e) Graph representing the cell survival by quantification of the crystal violet staining of the experiment described in (d), as described in Methods. Data represented as individual datapoints, and bars and error bars representing the mean ± SEM of 14 independent experiments. Statistical analysis was performed using a one-way ANOVA (Tukey’s test) for multiple comparisons. […]
(§4) Scale bars represent 100 μm. ns = not significant, * = p < 0.05, ** = p < 0.01, *** = p < 0.001, **** = p < 0.0001. Source data are provided as a Source Data file.

[4] = tested on: IMR90 cells at passage 27 (replicative senescence); experiment: Cell survival assay using crystal violet staining, replicative senescence; design: % Cell Survival: concentration or dose not given beside the values; settings: FIG 4C; Replicative Senescence (RS) cells; individual replicate values, Control DMSO = 100
From the text: IMR90 (CCL-186) human foetal lung fibroblasts and A549 (CCL-185) human lung adenocarcinoma cells were obtained from the American Type Culture Collection (ATCC, Manassas, VA). The cell lines were confirmed to be mycoplasma negative (Lonza MycoAlert, cat #LT07-118). IMR90 ER:RAS is a derivative of IMR90 cells expressing a switchable version of oncogenic H-Ras[84]. IMR90 ER:RAS and A549 cells were maintained in Dulbecco’s Modified Eagle Medium (DMEM, ThermoFisher) supplemented with foetal bovine serum (10%), L-glutamine (2 mM, ThermoFisher), and antibiotic-antimycotic solution (1%, ThermoFisher) and incubated under standard tissue culture conditions (37 °C and 5% CO2). For induction of the senescent phenotype, IMR90-ER:RAS cells were cultured in hydroxytamoxifen (4-OHT) (Sigma) added media at 100 nM final concentration. IMR90 were kept in culture for over 27 passages for replicative senescence. Cells were tested for mycoplasma on a regular basis.
(§5) Equal numbers of control and senescent cells were plated at high density on multiwell plates just before senolytic treatment addition. After treatment, cells were fixed on 0.5% glutaraldehyde (Sigma) and then dried at RT overnight. Then, wells were stained with crystal violet solution for 3 h, washed and dried. Once they were completely dry, the plates were scanned for records. Quantification was performed extracting the staining with 1% acetic acid and measuring the final solution by absorbance at 595 nm.

[5] = tested on: control A549 cells; experiment: Cell survival assay using crystal violet staining, TIS, control cells; settings: Control (no etoposide) cells; Control DMSO = 100; single replicates (SUP FIG 9E)
Protocol: as §2, §3, §4

[6] = tested on: control IMR90 ER:STOP cells; experiment: Cell survival assay using crystal violet staining, OIS, control cells; design: % Cell Survival: concentration or dose not given beside the values
Protocol: as §5

[7] = tested on: A549 cells treated with 100 μM etoposide; experiment: Cell survival assay using crystal violet staining, TIS, senescent cells; settings: fraction of Control DMSO = 1, n 15
[8] = tested on: senescent IMR90 ER:RAS cells; experiment: Cell survival assay using crystal violet staining, OIS, senescent cells; design: % Cell Survival: concentration or dose not given beside the values
Protocol: as §5

[9] = tested on: Na+/K+ ATPase pump (intracellular K+) in IMR90 cells at passage 27; experiment: Intracellular K+ determination with Asante staining, replicative senescence; settings: Replicative Senescence cells
Protocol: as §1

SMILES: CO[C@H]1C[C@H](O[C@H]2CC[C@]3(C)[C@H]4CC[C@]5(C)[C@@H](C6=CC(=O)OC6)CC[C@]5(O)[C@@H]4CC[C@]3(O)C2)O[C@H](C)[C@H]1O[C@@H]1O[C@H](CO)[C@@H](O)[C@H](O)[C@H]1O [Periplocin, periplocin]
- Caspase 3/7 activity time course (SUP FIG 9F) ([1]; 01:00:00 hours): 1.7
- Caspase 3/7 activity time course (SUP FIG 9F exp not shown) ([1]; 01:00:00 hours): 0.05
- Caspase 3/7 activity time course (SUP FIG 9F) ([1]; 05:00:00 hours): 2
- Caspase 3/7 activity time course (SUP FIG 9F exp not shown) ([1]; 05:00:00 hours): 0.2
- Caspase 3/7 activity time course (SUP FIG 9F) ([1]; 10:00:00 hours): 2.7
- Caspase 3/7 activity time course (SUP FIG 9F exp not shown) ([1]; 10:00:00 hours): 1.2
- Caspase 3/7 activity time course (SUP FIG 9F) ([1]; 15:00:00 hours): 2.7
- Caspase 3/7 activity time course (SUP FIG 9F exp not shown) ([1]; 15:00:00 hours): 1.2
- Caspase 3/7 activity time course (SUP FIG 9F) ([1]; 20:00:00 hours): 3
- Caspase 3/7 activity time course (SUP FIG 9F exp not shown) ([1]; 20:00:00 hours): 2.55
- Caspase 3/7 activity time course (SUP FIG 9F) ([1]; 1 day, 1:00:00): 3.5
- Caspase 3/7 activity time course (SUP FIG 9F exp not shown) ([1]; 1 day, 1:00:00): 3.9
- Caspase 3/7 activity time course (SUP FIG 9F) ([1]; 1 day, 6:00:00): 4
- Caspase 3/7 activity time course (SUP FIG 9F exp not shown) ([1]; 1 day, 6:00:00): 6.15
- Caspase 3/7 activity time course (SUP FIG 9F) ([1]; 1 day, 11:00:00): 4.8
- Caspase 3/7 activity time course (SUP FIG 9F exp not shown) ([1]; 1 day, 11:00:00): 8.35
- Casp3/7 activity (percentage of green fluorescent cells) ([1]; ER:RAS, 100 nM 4OHT, 10 nM compound, 35 h): 6.2%
- Asante Mean intensity ([2]; individual replicate values): 75.6 and 74 and 75.4 and 73.1 and 78 and 73 and 65.7
- Mean (Asante Mean intensity, Tukey test details) ([2]; mean of n=7): 73.54
- % Cell Survival [3]: 78.5% and 85.2% and 87.1% and 66.7% and 80.4% and 88.8% and 86.5% and 120% and 114.9% and 68.8% and 88.3% and 87.7% and 111.9% and 81.2%
- % Cell Survival [4]: 127.6% and 99.2% and 95.4% and 100.9% and 115.7% and 129.6% and 84.9% and 94.7% and 133.6% and 88.7% and 125.7% and 118.8%
- % Cell Survival [5]: 90% and 112.2% and 107.2% and 111% and 106.6% and 104.9% and 102.9% and 93.8% and 98.6% and 110.6% and 109.7% and 108.4% and 94.2% and 93.9%
- % Cell Survival ([6]; FIG 4B, ER:STOP cells, individual replicate values, ER:STOP DMSO = 100): 103.3% and 93.7% and 87.3% and 112.7% and 104.8% and 100.7% and 97.3% and 88.4% and 100.5% and 85.6% and 102.9% and 98.7%
- Mean (cell survival, Tukey test details) ([6]; FIG 4B, ER:STOP cells, mean of n=12 as fraction of STOP DMSO = 1): 0.9799
- cytotoxic activity (crystal violet), in words ([6]; IMR90-ER:STOP proliferating control cells, 10 nM, 72 h): no cytotoxic activity
- Cell survival, mean (Test details, Mean 2) [7]: 0.873
- % Cell Survival ([8]; FIG 4B, ER:RAS cells, individual replicate values, ER:STOP DMSO = 100): 119.4% and 103.3% and 90.2% and 103.2% and 120.1% and 97.6% and 95% and 114.9% and 93.3% and 103% and 92.4%
- Mean (cell survival, Tukey test details) ([8]; FIG 4B, ER:RAS cells, mean of n=12 as fraction of STOP DMSO = 1): 1.03
- cytotoxic activity / cellular content (crystal violet), in words ([8]; IMR90-ER:RAS cells undergoing OIS, 10 nM, 72 h): no cytotoxic activity
- Asante Mean intensity ([9]; individual replicate values): 152.4 and 152.1 and 153.1 and 152.9 and 152.7
- Asante Mean intensity, group mean (Test details, Mean 2) ([9]; mean of n=6): 152.6
